Test results as given in BindingDB's records for patent US20240018157 (Schrödinger, 2024).

Each molecule was assayed against T1, Mucosa-associated lymphoid tissue lymphoma translocation protein 1 (Homo sapiens, UniProt Q9UDY8) (assay: MALT1 Protease Assay 2).
T1 sequence (Q9UDY8 whole entry): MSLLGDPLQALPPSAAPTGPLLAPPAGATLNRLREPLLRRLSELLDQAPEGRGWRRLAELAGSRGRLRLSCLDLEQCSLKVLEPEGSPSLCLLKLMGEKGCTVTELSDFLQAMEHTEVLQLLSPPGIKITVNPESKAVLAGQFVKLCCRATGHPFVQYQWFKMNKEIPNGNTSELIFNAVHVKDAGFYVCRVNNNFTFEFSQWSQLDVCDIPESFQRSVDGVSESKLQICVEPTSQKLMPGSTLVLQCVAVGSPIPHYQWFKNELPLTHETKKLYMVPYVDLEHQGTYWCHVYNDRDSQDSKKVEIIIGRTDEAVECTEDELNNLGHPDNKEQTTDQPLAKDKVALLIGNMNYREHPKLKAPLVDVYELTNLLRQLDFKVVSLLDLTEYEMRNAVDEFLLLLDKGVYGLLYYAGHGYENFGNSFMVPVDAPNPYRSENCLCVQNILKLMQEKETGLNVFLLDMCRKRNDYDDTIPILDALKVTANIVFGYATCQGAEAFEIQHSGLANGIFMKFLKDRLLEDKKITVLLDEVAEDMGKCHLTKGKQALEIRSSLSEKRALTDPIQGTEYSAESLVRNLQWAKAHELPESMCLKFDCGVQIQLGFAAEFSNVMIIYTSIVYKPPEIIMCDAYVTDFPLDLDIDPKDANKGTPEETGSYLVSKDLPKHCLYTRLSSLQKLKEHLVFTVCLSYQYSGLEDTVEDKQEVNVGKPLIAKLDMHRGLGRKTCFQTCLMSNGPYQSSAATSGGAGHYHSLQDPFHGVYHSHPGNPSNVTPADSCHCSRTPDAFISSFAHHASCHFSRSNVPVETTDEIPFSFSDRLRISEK
Method: Test compounds were dissolved in 100% DMSO at stock of 10 mM, with final DMSO concentration 0.1%. Test compounds were pre-incubated with MALT1 protein for 2 h at room temperature.

| IC50 [nM] | Structure (SMILES) |
| --- | --- |
| 100 to 1000 | C[C@@]1(C(F)(F)F)CN(C(=O)N[C@@H]2CCCC(F)(F)C2)c2cnc3cc(Cl)nn3c21 [US20240018157, Example 54] |

The molecules below were run against T1, Mucosa-associated lymphoid tissue lymphoma translocation protein 1 (assay: MALT1 Protease Assay 1).
Method: The final assay buffer includes 2 nM of MALT1 full-length protein, 50 μM Ac-LRSR-AMC substrate, 50 mM Tris pH 7.5, 600 mM Sodium Citrate, 1 mM DTT, 1 mM EDTA, and 0.05% BSA in 384-well plate format using black microtiter square well plates (Optiplate 384-F, Perkin Elmer). Test compounds were dissolved in 100% DMSO at stock of 10 mM, with final DMSO concentration 0.1%. Test compounds were pre-incubated with MALT1 protein for 2 h at room temperature. Substrate was added after the pre-incubation and fluorescence signal was measured using Envision at excitation 355 nm and emission 460 nm after 8 hr incubation at RT. Increase in the assay signal was linear over this period and proportional with increase in the enzyme content.

| Structure (SMILES) | IC50 [nM] |
| --- | --- |
| CC1(C)c2c(cnc3cc(Cl)nn23)N(C(=O)Nc2cnc(-n3nccn3)c(Cl)c2)C[C@H]1O [US20240018157, Example 12] | < 10 |
| CO[C@H]1CN(C(=O)Nc2cnc(-n3nccn3)c(Cl)c2)c2cnc3cc(Cl)nn3c2C1(C)C [US20240018157, Example 13] | 10 to 100 |
| CO[C@@H]1CN(C(=O)Nc2cnc(-n3nccn3)c(Cl)c2)c2cnc3cc(Cl)nn3c2C1(C)C [US20240018157, Example 14] | 100 to 1000 |
| C[C@]1(C(F)(F)F)CN(C(=O)Nc2cnc(-n3nccn3)c(Cl)c2)c2cnc3cc(Cl)nn3c21 [US20240018157, Example 15] | 10 to 100 |
| C[C@@]1(C(F)(F)F)CN(C(=O)Nc2cnc(-n3nccn3)c(Cl)c2)c2cnc3cc(Cl)nn3c21 [US20240018157, Example 16] | < 10 |
| COc1ccc(NC(=O)N2C[C@@](C)(C(F)(F)F)c3c2cnc2cc(Cl)nn32)cc1Cl [US20240018157, Example 19] | < 10 |
| Cc1cc(NC(=O)N2C[C@@](C)(C(F)(F)F)c3c2cnc2cc(Cl)nn32)cnc1-n1nccn1 [US20240018157, Example 21] | < 10 |
| Cn1ccc(-c2ncc(NC(=O)N3C[C@@](C)(C(F)(F)F)c4c3cnc3cc(Cl)nn43)cc2Cl)n1 [US20240018157, Example 25] | < 10 |
| C[C@@]1(C(F)(F)F)CN(C(=O)Nc2cnc(-n3cccn3)c(Cl)c2)c2cnc3cc(Cl)nn3c21 [US20240018157, Example 26] | < 10 |

Continued, values first:

| IC50 [nM] | Structure (SMILES) |
| --- | --- |
| 10 to 100 | Cc1cc2ncc3c(n2n1)[C@@](C)(C(F)(F)F)CN3C(=O)Nc1cnc(-n2nccn2)c(Cl)c1 [US20240018157, Example 31] |
| 10 to 100 | C[C@@]1(C(F)(F)F)CN(C(=O)Nc2cnc([C@@H]3CCCO3)c(Cl)c2)c2cnc3cc(Cl)nn3c21 [US20240018157, Example 33] |
| < 10 | C[C@@]1(C(F)(F)F)CN(C(=O)Nc2cnc([C@H]3CCCO3)c(Cl)c2)c2cnc3cc(Cl)nn3c21 [US20240018157, Example 34] |
| 10 to 100 | C[C@]1(C(F)(F)F)CN(C(=O)Nc2cnc(-n3nccn3)c(Cl)c2)c2cnc3cc(F)nn3c21 [US20240018157, Example 38] |
| < 10 | C[C@@]1(C(F)(F)F)CN(C(=O)Nc2cnc(-n3nccn3)c(C(F)(F)F)c2)c2cnc3cc(Cl)nn3c21 [US20240018157, Example 40] |
| < 10 | C[C@@]1(C(F)(F)F)CN(C(=O)Nc2cnc(-n3nccn3)c(C#N)c2)c2cnc3cc(Cl)nn3c21 [US20240018157, Example 41] |
| < 10 | C[C@@]1(C(F)(F)F)CN(C(=O)Nc2cnc(-n3ccnn3)c(C(F)(F)F)c2)c2cnc3cc(Cl)nn3c21 [US20240018157, Example 44] |
| 10 to 100 | COCc1ncc(NC(=O)N2C[C@@](C)(C(F)(F)F)c3c2cnc2cc(Cl)nn32)cc1Cl [US20240018157, Example 45] |
| 10 to 100 | C[C@@]1(C(F)(F)F)CN(C(=O)Nc2cnc([C@@H]3CCCCO3)c(Cl)c2)c2cnc3cc(Cl)nn3c21 [US20240018157, Example 46] |
| 10 to 100 | C[C@@]1(C(F)(F)F)CN(C(=O)Nc2cnc([C@H]3CCCCO3)c(Cl)c2)c2cnc3cc(Cl)nn3c21 [US20240018157, Example 47] |
| < 10 | C[C@@]1(C(F)(F)F)CN(C(=O)Nc2cnc(-n3cc(O)cn3)c(Cl)c2)c2cnc3cc(Cl)nn3c21 [US20240018157, Example 48] |
| < 10 | C[C@@]1(C(F)(F)F)CN(C(=O)Nc2cnc(OC(F)F)c(Cl)c2)c2cnc3cc(Cl)nn3c21 [US20240018157, Example 49] |
| > 1000 | C[C@@]1(C(F)(F)F)CN(C(=O)N[C@@H]2CCCC(F)(F)C2)c2cnc3cc(Cl)nn3c21 [US20240018157, Example 54] |
